Measurements: PubChem BioAssay AID1259407 (Chemical Carcinogenesis Research Information System (CCRIS), 2018)
The source made the active and inactive calls. No rule for the calls is given here.

Test system: CCRIS mutagenicity, Ames/micronucleus/aberration tests
Test: CCRIS mutagenicity studies
[1] = Test System: AMES SALMONELLA TYPHIMURIUM, Strain/Indicator: TA98, Metabolic Activation: NONE, Method: PREINCUBATION
[2] = Test System: AMES SALMONELLA TYPHIMURIUM, Strain/Indicator: TA100, Metabolic Activation: NONE, Method: PREINCUBATION
[3] = Test System: AMES SALMONELLA TYPHIMURIUM, Strain/Indicator: TA1535, Metabolic Activation: NONE, Method: PREINCUBATION
[4] = Test System: AMES SALMONELLA TYPHIMURIUM, Strain/Indicator: TA1537, Metabolic Activation: NONE, Method: PREINCUBATION

Measured: mutagenic call

C#C[C@]1(O)C=C[C@H]2[C@@H]3CCC4=CC(=O)CC[C@@H]4[C@H]3CC[C@@]21CC
inactive: End Point: IN VIVO MICRONUCLEUS, Test System: BONE MARROW POLYCHROMATIC ERYTHROCYTES, Species: MOUSE, Strain/Sex: NMRI/FEMALE, Route: INTRAGASTRIC inactive; negative

O=C(O)c1ccc(S(=O)(=O)N(Cl)Cl)cc1
inactive: Test System: AMES SALMONELLA TYPHIMURIUM, Strain/Indicator: TA98, Metabolic Activation: HAMSTER, LIVER, S-9, AROCLOR 1254 (10%), Method: PREINCUBATION inactive; negative | [1] inactive; negative | Test System: AMES SALMONELLA TYPHIMURIUM, Strain/Indicator: TA98, Metabolic Activation: RAT, LIVER, S-9, AROCLOR 1254 (10%), Method: PREINCUBATION inactive; negative | Test System: AMES SALMONELLA TYPHIMURIUM, Strain/Indicator: TA100, Metabolic Activation: HAMSTER, LIVER, S-9, AROCLOR 1254 (10%), Method: PREINCUBATION inactive; negative | [2] inactive; negative | Test System: AMES SALMONELLA TYPHIMURIUM, Strain/Indicator: TA100, Metabolic Activation: RAT, LIVER, S-9, AROCLOR 1254 (10%), Method: PREINCUBATION inactive; negative | Test System: AMES SALMONELLA TYPHIMURIUM, Strain/Indicator: TA1535, Metabolic Activation: HAMSTER, LIVER, S-9, AROCLOR 1254 (10%), Method: PREINCUBATION inactive; negative | [3] inactive; negative | Test System: AMES SALMONELLA TYPHIMURIUM, Strain/Indicator: TA1535, Metabolic Activation: RAT, LIVER, S-9, AROCLOR 1254 (10%), Method: PREINCUBATION inactive; negative | Test System: AMES SALMONELLA TYPHIMURIUM, Strain/Indicator: TA1537, Metabolic Activation: HAMSTER, LIVER, S-9, AROCLOR 1254 (10%), Method: PREINCUBATION inactive; negative | [4] inactive; negative | Test System: AMES SALMONELLA TYPHIMURIUM, Strain/Indicator: TA1537, Metabolic Activation: RAT, LIVER, S-9, AROCLOR 1254 (10%), Method: PREINCUBATION inactive; negative

CSC(C)(C)/C=N/O
inactive: End Point: IN VITRO CHROMOSOMAL ABERRATIONS, Test System: CHO-LB CELLS, Metabolic Activation: NONE inactive; negative | End Point: IN VITRO CHROMOSOMAL ABERRATIONS, Test System: CHO-LB CELLS, Metabolic Activation: RAT, LIVER, S-9, AROCLOR 1254 inactive; negative | Test System: AMES SALMONELLA TYPHIMURIUM, Strain/Indicator: TA98, Metabolic Activation: HAMSTER, LIVER, S-9, AROCLOR 1254, Method: STANDARD PLATE inactive; negative | Test System: AMES SALMONELLA TYPHIMURIUM, Strain/Indicator: TA98, Metabolic Activation: NONE, Method: STANDARD PLATE inactive; negative | Test System: AMES SALMONELLA TYPHIMURIUM, Strain/Indicator: TA98, Metabolic Activation: RAT, LIVER, S-9, AROCLOR 1254, Method: STANDARD PLATE inactive; negative | Test System: AMES SALMONELLA TYPHIMURIUM, Strain/Indicator: TA100, Metabolic Activation: HAMSTER, LIVER, S-9, AROCLOR 1254, Method: STANDARD PLATE inactive; negative | Test System: AMES SALMONELLA TYPHIMURIUM, Strain/Indicator: TA100, Metabolic Activation: NONE, Method: STANDARD PLATE inactive; negative | Test System: AMES SALMONELLA TYPHIMURIUM, Strain/Indicator: TA100, Metabolic Activation: RAT, LIVER, S-9, AROCLOR 1254, Method: STANDARD PLATE inactive; negative | Test System: AMES SALMONELLA TYPHIMURIUM, Strain/Indicator: TA1535, Metabolic Activation: HAMSTER, LIVER, S-9, AROCLOR 1254, Method: STANDARD PLATE inactive; negative | Test System: AMES SALMONELLA TYPHIMURIUM, Strain/Indicator: TA1535, Metabolic Activation: NONE, Method: STANDARD PLATE inactive; negative | Test System: AMES SALMONELLA TYPHIMURIUM, Strain/Indicator: TA1535, Metabolic Activation: RAT, LIVER, S-9, AROCLOR 1254, Method: STANDARD PLATE inactive; negative | Test System: AMES SALMONELLA TYPHIMURIUM, Strain/Indicator: TA1537, Metabolic Activation: HAMSTER, LIVER, S-9, AROCLOR 1254, Method: STANDARD PLATE inactive; negative | Test System: AMES SALMONELLA TYPHIMURIUM, Strain/Indicator: TA1537, Metabolic Activation: NONE, Method: STANDARD PLATE inactive; negative | Test System: AMES SALMONELLA TYPHIMURIUM, Strain/Indicator: TA1537, Metabolic Activation: RAT, LIVER, S-9, AROCLOR 1254, Method: STANDARD PLATE inactive; negative | Test System: AMES SALMONELLA TYPHIMURIUM, Strain/Indicator: TA1538, Metabolic Activation: HAMSTER, LIVER, S-9, AROCLOR 1254, Method: STANDARD PLATE inactive; negative | Test System: AMES SALMONELLA TYPHIMURIUM, Strain/Indicator: TA1538, Metabolic Activation: NONE, Method: STANDARD PLATE inactive; negative | Test System: AMES SALMONELLA TYPHIMURIUM, Strain/Indicator: TA1538, Metabolic Activation: RAT, LIVER, S-9, AROCLOR 1254, Method: STANDARD PLATE inactive; negative | Test System: MOUSE LYMPHOMA, Strain/Indicator: L5178Y (TK+/TK-), Metabolic Activation: NONE, Method: SUSPENSION/PLATE inactive; negative. reevaluation of results: equivocal | Test System: MOUSE LYMPHOMA, Strain/Indicator: L5178Y (TK+/TK-), Metabolic Activation: RAT, LIVER, S-9, AROCLOR 1254, Method: SUSPENSION/PLATE inactive; negative. reevaluation of results: negative

COc1ccc(OC)cc1
inactive: Test System: AMES SALMONELLA TYPHIMURIUM, Strain/Indicator: TA98, Metabolic Activation: HAMSTER, LIVER, S-9, AROCLOR 1254, Method: PREINCUBATION inactive; negative | [1] inactive; negative | Test System: AMES SALMONELLA TYPHIMURIUM, Strain/Indicator: TA98, Metabolic Activation: RAT, LIVER, S-9, AROCLOR 1254, Method: PREINCUBATION inactive; negative | Test System: AMES SALMONELLA TYPHIMURIUM, Strain/Indicator: TA100, Metabolic Activation: HAMSTER, LIVER, S-9, AROCLOR 1254, Method: PREINCUBATION inactive; negative | [2] inactive; negative | Test System: AMES SALMONELLA TYPHIMURIUM, Strain/Indicator: TA100, Metabolic Activation: RAT, LIVER, S-9, AROCLOR 1254, Method: PREINCUBATION inactive; negative | Test System: AMES SALMONELLA TYPHIMURIUM, Strain/Indicator: TA1535, Metabolic Activation: HAMSTER, LIVER, S-9, AROCLOR 1254, Method: PREINCUBATION inactive; negative | [3] inactive; negative | Test System: AMES SALMONELLA TYPHIMURIUM, Strain/Indicator: TA1535, Metabolic Activation: RAT, LIVER, S-9, AROCLOR 1254, Method: PREINCUBATION inactive; negative | Test System: AMES SALMONELLA TYPHIMURIUM, Strain/Indicator: TA1537, Metabolic Activation: HAMSTER, LIVER, S-9, AROCLOR 1254, Method: PREINCUBATION inactive; negative | [4] inactive; negative | Test System: AMES SALMONELLA TYPHIMURIUM, Strain/Indicator: TA1537, Metabolic Activation: RAT, LIVER, S-9, AROCLOR 1254, Method: PREINCUBATION inactive; negative
